{"source": "patent US12552797B2", "about": "“Process for making (3-[cyclopropylethoxy(difluoro)methyl]-6-6[5-fluoro-6-(2,2,2-trifluoroethoxy-3-pyridyl]- [1,2,4]triazolo[4,3-a]pyrazine” (Praxis Precision Medicines, Inc., priority 2019, dated 2026)", "type_in_all_cases": "physicochemical", "key": {"[1]": {"assay": "Kinetic solubility of amorphous solid dispersions (ASD) in FaSSIF", "method": "Amorphous solid dispersion including Compound 1 was prepared with a mixture of Compound 1 and polymer. Nine ASD formulations were prepared using for screening 9 different polymers as the solid dispersant (PVPK30, PVPVA64, Soluplus, HPMC E5, HPMC ASMG, HPMC ASMF, HPMC ASHG, Eudragit EPO, Eudragit L100). About 10 mg of Compound 1 and 40 mg of corresponding polymer were weighed into 40-mL glass vials, and dissolved in 1 mL of MeOH/DCM (1:1, v/v) to prepare stock solution. […] The product after evaporation was dried under vacuum at 30° C. overnight and further characterized by appearance, PLM, XRPD and mDSC.\nThe nine ASD formulations were tested for kinetic solubility in FaSSIF at the concentration of 2 mg/mL. The experiment was run at 37° C. with the rate of 450 rpm. 0.5 mL of the mixture was taken out at each time point and centrifuged before running UPLC (a shortened runtime version of the described HPLC method was used to determine the Compound 1 levels)."}, "[2]": {"assay": "Stability of suspension formulations in methylcellulose/Poloxamer 188 vehicles (appearance, concentration, purity, PSD)", "set-up": "key: *: homogeneous suspension initially, sedimentation occurred over time and returned to homogeneous after gentle agitation; #: viscous homogeneous suspension initially, sedimentation occurred over time and returned to homogeneous after gentle agitation", "method": "As shown in Tables 9-11, various suspension formulations were tested for stability under different conditions.\nTo prepare a suspension weigh required amount of milled Compound 1 into a glass container and add corresponding volume of the vehicle. Thoroughly disperse the compound into a homogenous suspension using an overhead mixer at the final concentration target. Concentrations were prepared at 0.1 mg/mL and at 10 mg/mL. The suspension products were physically evaluated on visual appearance, concentration, purity and PSD.\nThe vehicles are prepared by dissolving 0.5% by weight of either 400 cP methylcellulose or 4000 cP methylcellulose and 0.2% Poloxamer 188. For the preserved suspensions, additionally 1.0% by volume of paraben preservative solution was dissolved into vehicle using an overhead mixer. The paraben preservative solution was prepared by dissolving 0.10 g methyl paraben, 0.025 g propylparaben in 9.875 g propylene glycol dissolved by mixing with a stir bar at room temperature for 1 hour."}, "[3]": {"assay": "Particle size distribution (PSD) of Compound 1 before and after manual or jet milling (Sympatec HELOS, dry method)", "method": "Compound 1 was milled by manual milling or jet milling to reduce particle size. For manual milling, Compound 1 was weighed into a ceramic motor and gentle milled for ˜5 mins. Particle size distribution (PSD) of Compound 1 indicated D90=77.82 μm and D90=28.27 μm before and after manual milling of Compound 1. PSD via dry method was conducted by Sympatec HELOS particle size analyzer, and dispersing system and pressure were RODOS and 0.5 bar, respectively.\nFor jet milling, Compound 1 was micronized by jet milling with a yield of ˜90%. Particle size of the jet-milled material was reduced to a D90 range of 4.7 to 13.5 μm."}}, "note": "“And” between values parts separate entries of the source, which are not always exact repeats. Identical values can stand only once."}
{"smiles": "CCOC(F)(F)c1nnc2cnc(-c3cnc(OCC(F)(F)F)c(F)c3)cn12", "note": "[Compound 1, 3-(ethoxydifluoromethyl)-6-(5-fluoro-6-(2,2,2-trifluoroethoxy)pyridin-3-yl)-[1,2,4]triazolo[4,3-a]pyrazine]", "values": [{"measurement": "solubility kinetic at 15 min", "setting": "[1]; FaSSIF, thermodynamic from solid, 2 mg/mL, 37° C., 450 rpm, 15 min", "value": 5.7, "unit": "µg/mL"}, {"measurement": "solubility kinetic at 30 min", "setting": "[1]; FaSSIF, thermodynamic from solid, 2 mg/mL, 37° C., 450 rpm, 30 min", "value": 8.1, "unit": "µg/mL"}, {"measurement": "solubility kinetic at 60 min", "setting": "[1]; FaSSIF, thermodynamic from solid, 2 mg/mL, 37° C., 450 rpm, 60 min", "value": 7.1, "unit": "µg/mL"}, {"measurement": "solubility kinetic at 120 min", "setting": "[1]; FaSSIF, thermodynamic from solid, 2 mg/mL, 37° C., 450 rpm, 120 min", "value": 11.6, "unit": "µg/mL"}, {"measurement": "Final pH", "setting": "[1]; kinetic solubility test in FaSSIF", "value": 6.54}, {"measurement": "Visual Appearance", "setting": "[2]; 0.5% 400 cP MC, 0.2% Poloxamer 188, 0.1 mg/mL, 1 h at RT", "value": "*"}, {"measurement": "Visual Appearance", "setting": "[2]; 0.5% 400 cP MC, 0.2% Poloxamer 188, 0.1 mg/mL, 4 h at RT", "value": "*"}, {"measurement": "Visual Appearance", "setting": "[2]; 0.5% 400 cP MC, 0.2% Poloxamer 188, 0.1 mg/mL, 24 h at RT", "value": "*"}, {"measurement": "Visual Appearance", "setting": "[2]; 0.5% 400 cP MC, 0.2% Poloxamer 188, 10 mg/mL, 1 h at RT", "value": "*"}, {"measurement": "Visual Appearance", "setting": "[2]; 0.5% 400 cP MC, 0.2% Poloxamer 188, 10 mg/mL, 4 h at RT", "value": "*"}, {"measurement": "Visual Appearance", "setting": "[2]; 0.5% 400 cP MC, 0.2% Poloxamer 188, 10 mg/mL, 24 h at RT", "value": "*"}, {"measurement": "Visual Appearance", "setting": "[2]; 0.5% 400 cP MC, 0.2% Poloxamer 188 and 1.0% of paraben preservative solution, 0.1 mg/mL, 1 h at RT", "value": "*"}, {"measurement": "Visual Appearance", "setting": "[2]; 0.5% 400 cP MC, 0.2% Poloxamer 188 and 1.0% of paraben preservative solution, 0.1 mg/mL, 4 h at RT", "value": "*"}, {"measurement": "Visual Appearance", "setting": "[2]; 0.5% 400 cP MC, 0.2% Poloxamer 188 and 1.0% of paraben preservative solution, 0.1 mg/mL, 24 h at RT", "value": "*"}, {"measurement": "Visual Appearance", "setting": "[2]; 0.5% 400 cP MC, 0.2% Poloxamer 188 and 1.0% of paraben preservative solution, 10 mg/mL, 1 h at RT", "value": "*"}, {"measurement": "Visual Appearance", "setting": "[2]; 0.5% 400 cP MC, 0.2% Poloxamer 188 and 1.0% of paraben preservative solution, 10 mg/mL, 4 h at RT", "value": "*"}, {"measurement": "Visual Appearance", "setting": "[2]; 0.5% 400 cP MC, 0.2% Poloxamer 188 and 1.0% of paraben preservative solution, 10 mg/mL, 24 h at RT", "value": "*"}, {"measurement": "Visual Appearance", "setting": "[2]; 0.5% 4000 cP MC, 0.2% Poloxamer 188, 0.1 mg/mL, 1 h at RT", "value": "#"}, {"measurement": "Visual Appearance", "setting": "[2]; 0.5% 4000 cP MC, 0.2% Poloxamer 188, 0.1 mg/mL, 4 h at RT", "value": "#"}, {"measurement": "Visual Appearance", "setting": "[2]; 0.5% 4000 cP MC, 0.2% Poloxamer 188, 0.1 mg/mL, 24 h at RT", "value": "#"}, {"measurement": "Visual Appearance", "setting": "[2]; 0.5% 4000 cP MC, 0.2% Poloxamer 188, 10 mg/mL, 1 h at RT", "value": "#"}, {"measurement": "Visual Appearance", "setting": "[2]; 0.5% 4000 cP MC, 0.2% Poloxamer 188, 10 mg/mL, 4 h at RT", "value": "#"}, {"measurement": "Visual Appearance", "setting": "[2]; 0.5% 4000 cP MC, 0.2% Poloxamer 188, 10 mg/mL, 24 h at RT", "value": "#"}, {"measurement": "Visual Appearance", "setting": "[2]; 0.5% 4000 cP MC, 0.2% Poloxamer 188 and 1.0% of paraben preservative solution, 0.1 mg/mL, 1 h at RT", "value": "#"}, {"measurement": "Visual Appearance", "setting": "[2]; 0.5% 4000 cP MC, 0.2% Poloxamer 188 and 1.0% of paraben preservative solution, 0.1 mg/mL, 4 h at RT", "value": "#"}, {"measurement": "Visual Appearance", "setting": "[2]; 0.5% 4000 cP MC, 0.2% Poloxamer 188 and 1.0% of paraben preservative solution, 0.1 mg/mL, 24 h at RT", "value": "#"}, {"measurement": "Visual Appearance", "setting": "[2]; 0.5% 4000 cP MC, 0.2% Poloxamer 188 and 1.0% of paraben preservative solution, 10 mg/mL, 1 h at RT", "value": "#"}, {"measurement": "Visual Appearance", "setting": "[2]; 0.5% 4000 cP MC, 0.2% Poloxamer 188 and 1.0% of paraben preservative solution, 10 mg/mL, 4 h at RT", "value": "#"}, {"measurement": "Visual Appearance", "setting": "[2]; 0.5% 4000 cP MC, 0.2% Poloxamer 188 and 1.0% of paraben preservative solution, 10 mg/mL, 24 h at RT", "value": "#"}, {"measurement": "D10", "setting": "[3]; after jet milling, batch 1", "value": 0.7, "unit": "μm"}, {"measurement": "D50", "setting": "[3]; after jet milling, batch 1", "value": 1.8, "unit": "μm"}, {"measurement": "D90", "setting": "[3]; after jet milling, batch 1", "value": 4.7, "unit": "μm"}, {"measurement": "D10", "setting": "[3]; after jet milling, batch 2", "value": 1.1, "unit": "μm"}, {"measurement": "D50", "setting": "[3]; after jet milling, batch 2", "value": 3.7, "unit": "μm"}, {"measurement": "D90", "setting": "[3]; after jet milling, batch 2", "value": 8.3, "unit": "μm"}, {"measurement": "D10", "setting": "[3]; after jet milling, batch 3", "value": 0.87, "unit": "μm"}, {"measurement": "D50", "setting": "[3]; after jet milling, batch 3", "value": 5.58, "unit": "μm"}, {"measurement": "D90", "setting": "[3]; after jet milling, batch 3", "value": 13.5, "unit": "μm"}, {"measurement": "D10", "setting": "[3]; after manual milling", "value": 0.8, "unit": "μm"}, {"measurement": "D50", "setting": "[3]; after manual milling", "value": 3.6, "unit": "μm"}, {"measurement": "D90", "setting": "[3]; after manual milling", "value": "28.27 μm and 28.3 μm"}, {"measurement": "D10", "setting": "[3]; before milling", "value": 1.8, "unit": "μm"}, {"measurement": "D50", "setting": "[3]; before milling", "value": 22.2, "unit": "μm"}, {"measurement": "D90", "setting": "[3]; before milling", "value": "77.82 μm and 77.8 μm"}, {"measurement": "D10", "setting": "[3]; before milling, batch 1", "value": 1.8, "unit": "μm"}, {"measurement": "D50", "setting": "[3]; before milling, batch 1", "value": 15.4, "unit": "μm"}, {"measurement": "D90", "setting": "[3]; before milling, batch 1", "value": 80.9, "unit": "μm"}, {"measurement": "D10", "setting": "[3]; before milling, batch 2", "value": 13.2, "unit": "μm"}, {"measurement": "D50", "setting": "[3]; before milling, batch 2", "value": 67.3, "unit": "μm"}, {"measurement": "D90", "setting": "[3]; before milling, batch 2", "value": 162.1, "unit": "μm"}, {"measurement": "D10", "setting": "[3]; before milling, batch 3", "value": 14.6, "unit": "μm"}, {"measurement": "D50", "setting": "[3]; before milling, batch 3", "value": 56.8, "unit": "μm"}, {"measurement": "D90", "setting": "[3]; before milling, batch 3", "value": 104, "unit": "μm"}]}
